The values that follow are results of earlier work, collected in patent publication US20060018956A1, “Dermal application system for aminolevulinic acid-derivatives” (priority 2002, published 2006).

For the series the following is noted: fresh ALA solution, approximate physiological value of 8, after just two weeks.

On to `NCC(=O)CCC(=O)O` [ALA, 5-aminolaevulinic acid], for which the undecomposed active substance entry was “approx. 10%”.
